Source: ChEMBL document CHEMBL5154672, “Design and synthesis of HDAC inhibitors to enhance the therapeutic effect of diffuse large B-cell lymphoma by improving metabolic stability and pharmacokinetic characteristics” (Eur J Med Chem, 2022)
Converted amounts (≈) assume the structure as drawn.

Key:
[1] = Metabolic stability in human liver microsomes assessed as intrinsic clearance measured for 75 to 130 mins by LC-MS/MS analysis; assay type: ADME, Microsome; conditions: liver microsomes, time 75-130 min, read-out: CLH
[2] = test system: MDA-MB-231; assay: Antiproliferative activity against human MDA-MB-231 cells incubated for 72 hrs by luminescence assay; assay type: functional, cell-based; conditions: MDA-MB-231, 72 h
[3] = test system: TMD8; assay: Antiproliferative activity against human TMD8 cells assessed as remaining cell activity at 2 uM incubated for 72 hrs by luminescence assay relative to control; assay type: functional
[4] = test system: A549; assay: Antiproliferative activity against human A549 cells incubated for 72 hrs by luminescence assay; assay type: functional, cell-based; conditions: A549, 72 h
[5] = test system: NCI-H460; assay: Antiproliferative activity against human NCI-H460 cells incubated for 72 hrs by luminescence assay; assay type: functional, cell-based; conditions: NCI-H460, 72 h
[6] = test system: HCT-116; assay: Antiproliferative activity against human HCT-116 cells incubated for 72 hrs by luminescence assay; assay type: functional, cell-based; conditions: HCT-116, 72 h
[7] = test system: HT-29; assay: Antiproliferative activity against human HT-29 cells incubated for 72 hrs by luminescence assay; assay type: functional, cell-based; conditions: HT-29, 72 h
[8] = test system: COLO-678; assay: Antiproliferative activity against human COLO-678 cells incubated for 72 hrs by luminescence assay; assay type: functional, cell-based; conditions: COLO-678, 72 h
[9] = test system: 786-0; assay: Antiproliferative activity against human 786-O cells incubated for 72 hrs by luminescence assay; assay type: functional, cell-based; conditions: 786-0, 72 h
[10] = test system: TMD8; assay: Antiproliferative activity against human TMD8 cells incubated for 72 hrs by luminescence assay; assay type: functional, cell-based; conditions: TMD8, 72 h
[11] = test system: DOHH-2; assay: Antiproliferative activity against human DOHH-2 cells incubated for 72 hrs by luminescence assay; assay type: functional, cell-based; conditions: DOHH-2, 72 h
[12] = test system: CCRF-CEM; assay: Antiproliferative activity against human CCRF-CEM cells incubated for 72 hrs by luminescence assay; assay type: functional, cell-based
[13] = test system: Rec1; assay: Antiproliferative activity against human REC1 cells incubated for 72 hrs by luminescence assay; assay type: functional, cell-based; conditions: Rec1, 72 h
[14] = test system: MOLT-4; assay: Antiproliferative activity against human MOLT-4 cells incubated for 72 hrs by luminescence assay; assay type: functional, cell-based; conditions: MOLT-4, 72 h
[15] = test system: HuT78; assay: Antiproliferative activity against human HuT78 cells incubated for 72 hrs by luminescence assay; assay type: functional, cell-based; conditions: HuT78, 72 h
[16] = Metabolic stability in rat liver microsomes assessed as intrinsic clearance measured for 75 to 130 mins by LC-MS/MS analysis; assay type: ADME, Microsome; conditions: time 75-130 min, read-out: CLH
[17] = biological target: Histone deacetylase 2 (Homo sapiens, UniProt Q92769); assay: Inhibition of HDAC2 (unknown origin) using RHKK(Ac)AMC fluorogenic peptide as substrate preincubated for 10 mins followed by substrate addition for 1 hr in presence of ATP by fluoroscence based assay
Chain of Histone deacetylase 2 (Q92769 whole entry): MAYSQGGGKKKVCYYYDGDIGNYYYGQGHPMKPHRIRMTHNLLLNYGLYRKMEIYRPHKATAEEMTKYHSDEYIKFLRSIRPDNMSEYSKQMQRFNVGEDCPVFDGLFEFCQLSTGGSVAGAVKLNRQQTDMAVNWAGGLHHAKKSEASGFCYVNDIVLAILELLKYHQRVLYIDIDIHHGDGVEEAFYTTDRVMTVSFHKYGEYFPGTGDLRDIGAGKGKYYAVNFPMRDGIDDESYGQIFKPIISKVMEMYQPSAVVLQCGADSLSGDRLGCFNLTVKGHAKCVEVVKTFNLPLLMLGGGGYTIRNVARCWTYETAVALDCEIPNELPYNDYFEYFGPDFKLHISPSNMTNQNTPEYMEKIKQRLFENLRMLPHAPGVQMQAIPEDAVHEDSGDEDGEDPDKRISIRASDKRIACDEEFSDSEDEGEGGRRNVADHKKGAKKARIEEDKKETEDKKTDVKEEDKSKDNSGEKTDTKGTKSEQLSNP

[18] = biological target: Histone deacetylase 8 (Homo sapiens, UniProt Q9BY41); assay: Inhibition of HDAC8 (unknown origin) using RHK(Ac)K(Ac)AMC fluorogenic peptide as substrate preincubated for 10 mins followed by substrate addition for 2 hr in presence of ATP by fluoroscence based assay
Chain of Histone deacetylase 8 (Q9BY41 whole entry): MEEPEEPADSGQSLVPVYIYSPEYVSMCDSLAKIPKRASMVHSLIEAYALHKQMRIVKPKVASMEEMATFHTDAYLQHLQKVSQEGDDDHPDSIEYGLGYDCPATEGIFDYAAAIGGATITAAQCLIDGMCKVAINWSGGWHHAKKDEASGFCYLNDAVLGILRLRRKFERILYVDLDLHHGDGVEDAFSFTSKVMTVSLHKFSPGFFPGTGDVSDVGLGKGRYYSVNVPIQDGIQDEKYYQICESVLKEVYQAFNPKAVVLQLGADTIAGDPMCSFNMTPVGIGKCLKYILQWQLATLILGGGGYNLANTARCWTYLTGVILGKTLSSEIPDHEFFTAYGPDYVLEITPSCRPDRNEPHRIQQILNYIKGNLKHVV

[19] = Cmax in ICR mouse at 25 mg/kg, po measured upto 24 hrs by LC-MS/MS analysis; assay type: ADME, organism-based; set-up: time < 24 hrs, dose 25 mg/kg, route po; conditions: in vivo
[20] = Half life in ICR mouse at 25 mg/kg, po measured upto 24 hrs by LC-MS/MS analysis; assay type: ADME, organism-based; conditions: in vivo
[21] = Aqueous solubility of the compound; assay type: physicochemical; conditions: aqueous medium
[22] = Cmax in CB.17 SCID mouse xenografted with human TMD8 cells at 25 mg/kg, po measured upto 24 hrs by LC-MS/MS analysis; assay type: ADME, organism-based; set-up: dose 25 mg/kg, time < 24 hrs, route po; conditions: in vivo
[23] = Cmax in CB.17 SCID mouse xenografted with human TMD8 cells at 50 mg/kg, po measured upto 24 hrs by LC-MS/MS analysis; assay type: ADME, organism-based; set-up: dose 50 mg/kg, time < 24 hrs, route po; conditions: in vivo
[24] = Cmax in CB.17 SCID mouse xenografted with human TMD8 cells at 100 mg/kg, po measured upto 24 hrs by LC-MS/MS analysis; assay type: ADME, organism-based; set-up: time < 24 hrs, dose 100 mg/kg, route po; conditions: in vivo
[25] = AUC (0 to t) in CB.17 SCID mouse xenografted with human TMD8 cells at 100 mg/kg, po measured upto 24 hrs by LC-MS/MS analysis; assay type: ADME, organism-based; set-up: dose 100 mg/kg, time < 24 hrs, route po; conditions: in vivo
[26] = AUC (0 to infinity) in CB.17 SCID mouse xenografted with human TMD8 cells at 25 mg/kg, po measured upto 24 hrs by LC-MS/MS analysis; assay type: ADME, organism-based; set-up: time < 24 hrs, dose 25 mg/kg, route po; conditions: in vivo
[27] = AUC (0 to infinity) in CB.17 SCID mouse xenografted with human TMD8 cells at 50 mg/kg, po measured upto 24 hrs by LC-MS/MS analysis; assay type: ADME, organism-based; set-up: dose 50 mg/kg, time < 24 hrs, route po; conditions: in vivo
[28] = AUC (0 to infinity) in CB.17 SCID mouse xenografted with human TMD8 cells at 100 mg/kg, po measured upto 24 hrs by LC-MS/MS analysis; assay type: ADME, organism-based; set-up: time < 24 hrs, dose 100 mg/kg, route po; conditions: in vivo
[29] = MRT(0 to infinity) in CB.17 SCID mouse xenografted with human TMD8 cells at 25 mg/kg, po measured upto 24 hrs by LC-MS/MS analysis; assay type: ADME, organism-based; conditions: in vivo
[30] = MRT(0 to infinity) in CB.17 SCID mouse xenografted with human TMD8 cells at 50 mg/kg, po measured upto 24 hrs by LC-MS/MS analysis; assay type: ADME, organism-based; conditions: in vivo
[31] = MRT(0 to infinity) in CB.17 SCID mouse xenografted with human TMD8 cells at 100 mg/kg, po measured upto 24 hrs by LC-MS/MS analysis; assay type: ADME, organism-based; conditions: in vivo
[32] = test system: TMD8; assay: Induction of apoptosis in human TMD8 cells assessed as viable cells at 0.5 uM incubated for 24 hrs by Annexin V-FITC/PI staining based flow cytometric analysis (reference value: 96.4%); assay type: functional; conditions: read-out: Activity
[33] = test system: TMD8; assay: Induction of apoptosis in human TMD8 cells assessed as early apoptotic cells at 0.5 uM incubated for 24 hrs by Annexin V-FITC/PI staining based flow cytometric analysis (reference value: 0.24%); assay type: functional
[34] = test system: TMD8; assay: Induction of apoptosis in human TMD8 cells assessed as necrotic cells at 0.5 uM incubated for 24 hrs by Annexin V-FITC/PI staining based flow cytometric analysis (RVB=1.85%); assay type: functional
[35] = test system: TMD8; assay: Induction of apoptosis in human TMD8 cells assessed as late apoptotic cells at 1 uM incubated for 24 hrs by Annexin V-FITC/PI staining based flow cytometric analysis (reference value: 1.54%); assay type: functional
[36] = test system: TMD8; assay: Induction of apoptosis in human TMD8 cells assessed as necrotic cells at 1 uM incubated for 24 hrs by Annexin V-FITC/PI staining based flow cytometric analysis (reference value: 1.85%); assay type: functional
[37] = test system: TMD8; assay: Induction of apoptosis in human TMD8 cells assessed as early apoptotic cells at 4 uM incubated for 24 hrs by Annexin V-FITC/PI staining based flow cytometric analysis (reference value: 0.24%); assay type: functional
[38] = test system: TMD8; assay: Induction of apoptosis in human TMD8 cells assessed as late apoptotic cells at 4 uM incubated for 24 hrs by Annexin V-FITC/PI staining based flow cytometric analysis (reference value: 1.54%); assay type: functional
[39] = test system: TMD8; assay: Induction of apoptosis in human TMD8 cells assessed as necrotic cells at 4 uM incubated for 24 hrs by Annexin V-FITC/PI staining based flow cytometric analysis (reference value: 1.85%); assay type: functional

Nc1ccccc1NC(=O)c1ccc(CN2CCC/C(=C\c3ccccn3)C2=O)cc1
microsomal CLint [1]: 1.7 µL/min/mg
IC50 [2]: 2290 nM
Activity [3]: 2.32%
IC50 [4]: 2850 nM
IC50 [5]: 1580 nM
IC50 [6]: 1160 nM
IC50 [7]: 2410 nM
IC50 [8]: 8020 nM
IC50 [9]: 600 nM
IC50 [10]: 310 nM
IC50 [11]: 390 nM
IC50 [12]: 480 nM
IC50 [13]: 330 nM
IC50 [14]: 380 nM
IC50 [15]: 800 nM
microsomal CLint [16]: 13.2 µL/min/mg
IC50 [17]: 168 nM
IC50 [18]: > 10000 nM
Cmax [19]: 3100 ng/mL
half-life [20]: 4.4 h
solubility [21]: 5 ng/mL (≈ 0.0121 µM)
Cmax [22]: 1700 ng/mL
Cmax [23]: 14700 ng/mL
Cmax [24]: 10700 ng/mL
AUC(0-t) at 24 h [25]: 9740 ng·h/mL
AUC(0-inf) [26]: 1230 ng·h/mL
AUC(0-inf) [27]: 9730 ng·h/mL
AUC(0-inf) [28]: 9770 ng·h/mL
MRT inf [29]: 0.805 h
MRT inf [30]: 0.821 h
MRT inf [31]: 1.51 h
viability at 0.5 µM [32]: 95.8%
Activity [33]: 0.34%
Activity [34]: 2.29%
Activity [35]: 3.13%
Activity [36]: 3.64%
Activity [37]: 24.8%
Activity [38]: 9.64%
Activity [39]: 8.19%
